Reference: PMC8703412 (Pharmaceuticals, 2021)
In brackets after ≈: the same amount, converted by molar mass. Like-named read-outs stand apart in the source and are kept apart here.

How the values were obtained:
[1] = tested on: Mycobacterium avium 330/88; test: MIC micromethod in Šula's medium, M. avium; assay type: cell-based
[2] = tested on: Mycobacterium kansasii 6509/96 (clinical isolate); test: MIC micromethod in Šula's medium, M. kansasii; assay type: cell-based; settings: Mycobacterium kansasii
[3] = tested on: Mycobacterium tuberculosis strain 331/88 (i.e., H37Rv); test: MIC micromethod in Šula's medium, drug-susceptible Mtb.; assay type: cell-based
[4] = Cytotoxicity, CellTiter 96 (MTS) assay; settings: human, Cytotoxicity for HepG2 cells, IC50, 24 h incubation, 1–1000 µM
[5] = Mycobacterium avium, 330/88, 336 h, 14 d incubation, precursors, Table 2, read-out: MIC M. avium 330/88 14 d
[6] = Mycobacterium avium, 330/88, 504 h, 21 d incubation, precursors, Table 2, read-out: MIC M. avium 330/88 21 d
[7] = 168 h, 7 d incubation, precursors, Table 2, read-out: MIC M. kansasii 6509/96 7 d
[8] = 336 h, 14 d incubation, precursors, Table 2, read-out: MIC M. kansasii 6509/96 14 d
[9] = 504 h, 21 d incubation, precursors, Table 2, read-out: MIC M. kansasii 6509/96 21 d
[10] = Mycobacterium tuberculosis, H37RV, 336 h, 14 d incubation, precursors, Table 2, read-out: MIC Mtb. 331/88 14 d
[11] = Mycobacterium tuberculosis, H37RV, 504 h, 21 d incubation, precursors, Table 2, read-out: MIC Mtb. 331/88 21 d
[12] = Mycobacterium avium, 330/88, 336 h, 14 d incubation, Table 1, read-out: MIC M. avium 330/88 14 d
[13] = Mycobacterium avium, 330/88, 504 h, 21 d incubation, Table 1, read-out: MIC M. avium 330/88 21 d
[14] = 168 h, 7 d incubation, Table 1, read-out: MIC M. kansasii 6509/96 7 d
[15] = 336 h, 14 d incubation, Table 1, read-out: MIC M. kansasii 6509/96 14 d
[16] = 504 h, 21 d incubation, Table 1, read-out: MIC M. kansasii 6509/96 21 d
[17] = Mycobacterium tuberculosis, H37RV, 336 h, 14 d incubation, esters, Table 1, read-out: MIC Mtb. 331/88 14 d
[18] = Mycobacterium tuberculosis, H37RV, 504 h, 21 d incubation, esters, Table 1, read-out: MIC Mtb. 331/88 21 d
[19] = 504 h, text summary over 7, 14 and 21 d, read-out: MIC for M. kansasii 6509/96
[20] = 168 h, read-out: MIC M. kansasii 6509/96 7 d
[21] = Mycobacterium avium, 330/88, 336 h, read-out: MIC M. avium 330/88 14 d
[22] = Mycobacterium avium, 330/88, 504 h, read-out: MIC M. avium 330/88 21 d
[23] = 336 h, read-out: MIC M. kansasii 6509/96 14 d
[24] = 504 h, read-out: MIC M. kansasii 6509/96 21 d

| SMILES | MIC [1, 5] [µM] | MIC [1, 6] [µM] | MIC [2, 8] [µM] | MIC [2, 9] [µM] | MIC [3, 10] [µM] | MIC [3, 11] [µM] | MIC [1, 12] [µM] | MIC [1, 13] [µM] | melting point [°C] | IC50 at 24 h [4] [µM] | MIC [2, 14] [µM] | MIC [2, 15] [µM] | MIC [2, 16] [µM] | MIC [3, 17] [µM] | MIC [3, 18] [µM] | also measured |
| --- | --- | --- | --- | --- | --- | --- | --- | --- | --- | --- | --- | --- | --- | --- | --- | --- |
| Oc1cccc2ccccc12 [1-naphthol, reference compound] | 500 (≈ 72.1 µg/mL) | 500 (≈ 72.1 µg/mL) | 250 (≈ 36 µg/mL) | 500 (≈ 72.1 µg/mL) | 250 (≈ 36 µg/mL) | 500 (≈ 72.1 µg/mL) | – | – | – | – | – | – | – | – | – | MIC [2, 7]: 125 µM (≈ 18 µg/mL) |
| CCSC(=O)/C(C)=N/NC(=O)c1ccncc1 [3r, S-Ethyl (E)-2-(2-isonicotinoylhydrazineylidene)propanethioate] | – | – | – | – | – | – | 250 (≈ 62.8 µg/mL) | 500 (≈ 126 µg/mL) | 158 to 160 | > 1000 | 1 (≈ 0.251 µg/mL) | 2 (≈ 0.503 µg/mL) | 4 (≈ 1.01 µg/mL) | 0.25 (≈ 0.0628 µg/mL) | 0.25 (≈ 0.0628 µg/mL) | – |
| C/C(=N\NC(=O)c1ccncc1)C(=O)Oc1ccc(Cl)cc1 [3g, 4-Chlorophenyl (E)-2-(2-isonicotinoylhydrazineylidene)propanoate] | – | – | – | – | – | – | 500 (≈ 159 µg/mL) | 1000 (≈ 318 µg/mL) | 184 to 186.1 | > 1000 | 4 (≈ 1.27 µg/mL) | 8 (≈ 2.54 µg/mL) | 16 (≈ 5.08 µg/mL) | ≤ 0.125 | ≤ 0.125 | – |
| Cc1ncc([N+](=O)[O-])n1CCO [Metronidazole, reference compound] | > 1000 | > 1000 | > 1000 | > 1000 | > 1000 | > 1000 | – | – | – | – | – | – | – | – | – | MIC [2, 7]: 1000 µM (≈ 171 µg/mL) |
| C/C(=N\NC(=O)c1ccncc1)C(=O)Oc1ccc(Br)cc1 [3h, 4-Bromophenyl (E)-2-(2-isonicotinoylhydrazineylidene)propanoate] | – | – | – | – | – | – | 250 (≈ 90.5 µg/mL) | 500 (≈ 181 µg/mL) | 190 to 192 | > 1000 | 8 (≈ 2.9 µg/mL) | 8 (≈ 2.9 µg/mL) | 16 (≈ 5.79 µg/mL) | ≤ 0.125 | 0.25 (≈ 0.0905 µg/mL) | MIC [2, 19]: 8 to 16 µM (≈ 2.9 to 5.79 µg/mL) |
| C/C(=N\NC(=O)c1ccncc1)C(=O)OCc1ccncc1 [3n, Pyridin-4-ylmethyl (E)-2-(2-isonicotinoylhydrazineylidene)propanoate] | – | – | – | – | – | – | ≥ 1000 | ≥ 1000 | 126 to 128 | > 1000 | 8 (≈ 2.39 µg/mL) | 16 (≈ 4.77 µg/mL) | 16 (≈ 4.77 µg/mL) | 0.5 (≈ 0.149 µg/mL) | 1 (≈ 0.298 µg/mL) | MIC [2, 19]: 8 to 16 µM (≈ 2.39 to 4.77 µg/mL); MIC ([3]; Mycobacterium tuberculosis, H37RV, 504 h, 14 and 21 d, read-out: MIC for Mtb.): 0.5 to 1 µM (≈ 0.149 to 0.298 µg/mL) |
| Oc1ccc2ccccc2c1 [2-naphthol, reference compound] | 1000 (≈ 144 µg/mL) | 1000 (≈ 144 µg/mL) | 500 (≈ 72.1 µg/mL) | 500 (≈ 72.1 µg/mL) | 500 (≈ 72.1 µg/mL) | 500 (≈ 72.1 µg/mL) | – | – | – | – | – | – | – | – | – | MIC [2, 20]: 250 µM (≈ 36 µg/mL) |
| COC(=O)/C(C)=N/NC(=O)c1ccncc1 [3a, Methyl (E)-2-(2-isonicotinoylhydrazineylidene)propanoate] | – | – | – | – | – | – | 500 (≈ 111 µg/mL) | 1000 (≈ 221 µg/mL) | 122 to 124.8 | > 1000 | 2 (≈ 0.442 µg/mL) | 4 (≈ 0.885 µg/mL) | 8 (≈ 1.77 µg/mL) | 0.25 (≈ 0.0553 µg/mL) | 0.25 (≈ 0.0553 µg/mL) | – |
| C/C(=N\NC(=O)c1ccncc1)C(=O)Oc1ccc(C)cc1 [3c, p-Tolyl (E)-2-(2-isonicotinoylhydrazineylidene)propanoate] | – | – | – | – | – | – | > 250 | > 250 | 168 to 170 | > 1000 | 8 (≈ 2.38 µg/mL) | 8 (≈ 2.38 µg/mL) | 8 (≈ 2.38 µg/mL) | ≤ 0.25 | 0.5 (≈ 0.149 µg/mL) | – |
| CC(=O)Nc1ccc(O)cc1 [Paracetamol, reference compound] | > 1000 | > 1000 | – | – | > 1000 | > 1000 | – | – | – | – | – | – | – | – | – | – |
| Oc1cc(Cl)ccc1Oc1ccc(Cl)cc1Cl [Triclosan, 5-chloro-2-(2,4-dichlorophenoxy)phenol, reference compound] | – | – | – | – | 32 (≈ 9.27 µg/mL) | 32 (≈ 9.27 µg/mL) | – | – | – | – | – | – | – | – | – | MIC [1, 21]: 64 µM (≈ 18.5 µg/mL); MIC [1, 22]: 64 µM (≈ 18.5 µg/mL); MIC [2, 20]: 16 µM (≈ 4.63 µg/mL); MIC [2, 23]: 32 µM (≈ 9.27 µg/mL); MIC [2, 24]: 32 µM (≈ 9.27 µg/mL) |
| Cc1ccc(C(C)C)c(O)c1 [Thymol, reference compound] | 250 (≈ 37.6 µg/mL) | 500 (≈ 75.1 µg/mL) | 250 (≈ 37.6 µg/mL) | 500 (≈ 75.1 µg/mL) | 64 (≈ 9.61 µg/mL) | 125 (≈ 18.8 µg/mL) | – | – | – | – | – | – | – | – | – | MIC [2, 20]: 125 µM (≈ 18.8 µg/mL) |
| Cc1ccc(C(C)C)cc1O [Carvacrol, reference compound] | – | – | – | – | 125 (≈ 18.8 µg/mL) | 250 (≈ 37.6 µg/mL) | – | – | – | – | – | – | – | – | – | MIC [1, 21]: 250 µM (≈ 37.6 µg/mL); MIC [1, 22]: 500 µM (≈ 75.1 µg/mL); MIC [2, 20]: 125 µM (≈ 18.8 µg/mL); MIC [2, 23]: 250 µM (≈ 37.6 µg/mL); MIC [2, 24]: 500 µM (≈ 75.1 µg/mL) |
| Oc1cccc2cccnc12 [Quinolin-8-ol, reference compound] | – | – | – | – | 8 (≈ 1.16 µg/mL) | 8 (≈ 1.16 µg/mL) | – | – | – | – | – | – | – | – | – | MIC [1, 21]: 64 µM (≈ 9.29 µg/mL); MIC [1, 22]: 64 µM (≈ 9.29 µg/mL); MIC [2, 20]: 16 µM (≈ 2.32 µg/mL); MIC [2, 23]: 32 µM (≈ 4.65 µg/mL); MIC [2, 24]: 32 µM (≈ 4.65 µg/mL) |
| Oc1ccc(Oc2ccccc2)cc1 [4-phenoxyphenol, reference compound] | 250 (≈ 46.6 µg/mL) | 500 (≈ 93.1 µg/mL) | 64 (≈ 11.9 µg/mL) | 125 (≈ 23.3 µg/mL) | 64 (≈ 11.9 µg/mL) | 64 (≈ 11.9 µg/mL) | – | – | – | – | – | – | – | – | – | MIC [2, 7]: 32 µM (≈ 5.96 µg/mL) |
| NNC(=O)c1ccncc1 [INH 1, Isoniazid, reference compound] | – | – | 8 (≈ 1.1 µg/mL) | 8 (≈ 1.1 µg/mL) | – | – | > 250 | > 250 | – | > 1000 | 8 (≈ 1.1 µg/mL) | 8 (≈ 1.1 µg/mL) | – | 1 (≈ 0.137 µg/mL) | 1 (≈ 0.137 µg/mL) | MIC ([1]; 14 d incubation, precursors, Table 2, read-out: MIC M. avium 330/88 14 d): >250 µM; MIC ([1]; 21 d incubation, precursors, Table 2, read-out: MIC M. avium 330/88 21 d): >250 µM; MIC [2, 7]: 4 µM (≈ 0.549 µg/mL); MIC [2, 24]: 16 µM (≈ 2.19 µg/mL); MIC ([3]; 14 d incubation, precursors, Table 2, read-out: MIC Mtb. 331/88 14 d): 1 µM (≈ 0.137 µg/mL); MIC ([3]; 21 d incubation, precursors, Table 2, read-out: MIC Mtb. 331/88 21 d): 1 µM (≈ 0.137 µg/mL) |
| CC(=O)Nc1ccc(OC(=O)C(C)=NNC(=O)c2ccncc2)cc1 [3p, 4-Acetamidophenyl 2-(2-isonicotinoylhydrazineylidene)propanoate] | – | – | – | – | – | – | 1000 (≈ 340 µg/mL) | 1000 (≈ 340 µg/mL) | – | > 1000 | 8 (≈ 2.72 µg/mL) | 16 (≈ 5.45 µg/mL) | 16 (≈ 5.45 µg/mL) | 0.25 (≈ 0.0851 µg/mL) | 0.5 (≈ 0.17 µg/mL) | MIC [2, 19]: 8 to 16 µM (≈ 2.72 to 5.45 µg/mL) |
